# Reference: ChEMBL document CHEMBL5143582, “Genome-Guided Discovery of Antifungal Filipins from a Deep-Sea-Derived Streptomyces antibioticus” (2022)
# Tested on: Candida albicans
# Assay: Antifungal activity Candida albicans CMCC(F) 98001 assessed as inhibition of fungal growth incubated for 24 hrs by broth micro dilution method
# Format: functional
row,SMILES,MIC [µg/mL]
1,C[C@@H]1[C@H](O)[C@@H](C)/C=C/C=C/C=C/C=C/C=C/C=C/C=C/[C@H](O[C@@H]2O[C@H](C)[C@@H](O)[C@H](N)[C@@H]2O)C[C@@H]2O[C@](O)(C[C@@H](O)C[C@@H](O)[C@H](O)CC[C@@H](O)C[C@@H](O)CC(=O)O[C@H]1C)C[C@H](O)[C@H]2C(=O)O [AMPHOTERICIN B],0.2
2,CCCCCC[C@@H]1CC[C@@H](O)C[C@@H](O)C[C@@H](O)C[C@@H](O)C[C@@H](O)C[C@@H](O)C[C@H](O)/C(C)=C/C=C/C=C/C=C/C=C/[C@H](O)[C@@H](C)OC1=O,> 12.5
3,C\C1=C/C=C/C=C/C=C/C=C/[C@H](O)[C@@H](C)OC(=O)C[C@@H](O)C[C@@H](O)C[C@@H](O)C[C@@H](O)C[C@@H](O)C[C@@H](O)C[C@@H]1O,> 12.5
4,CC(C)CC[C@H]1C(=O)O[C@H](C)[C@@H](O)/C=C/C=C/C=C/C=C/C=C/[C@@H](O)C[C@H](O)C[C@H](O)C[C@H](O)C[C@H](O)C[C@H](O)C[C@@H]1O,> 12.5
5,C\C1=C/C=C/C=C/C=C/C=C/[C@H](O)[C@@H](C)OC(=O)[C@H](CCCC(C)C)[C@@H](O)C[C@@H](O)C[C@@H](O)C[C@@H](O)C[C@@H](O)C[C@@H](O)C[C@@H]1O,1.56

# Second part, the compound after the results:
row,MIC [µg/mL],SMILES
1,> 12.5,C\C1=C/C=C/C=C/C=C/C=C/C[C@@H](C)OC(=O)C[C@@H](O)C[C@@H](O)C[C@@H](O)C[C@@H](O)C[C@@H](O)C[C@@H](O)C[C@@H]1O
2,6.25,CCCC[C@H]1C(=O)O[C@H](C)[C@@H](O)/C=C/C=C/C=C/C=C/C=C(\C)[C@@H](O)C[C@H](O)C[C@H](O)C[C@H](O)C[C@H](O)C[C@H](O)C[C@@H]1O
3,3.13,CCCCC[C@H]1C(=O)O[C@H](C)[C@@H](O)/C=C/C=C/C=C/C=C/C=C(\C)[C@@H](O)C[C@H](O)C[C@H](O)C[C@H](O)C[C@H](O)C[C@H](O)C[C@@H]1O
4,> 12.5,C\C1=C/C=C/C=C/C=C/C=C/C[C@@H](C)OC(=O)C[C@@H](O)C[C@@H](O)C[C@@H](O)C[C@@H](O)C[C@@H](O)C[C@@H]1O
5,3.13,C\C1=C/C=C/C=C/C=C/C=C/[C@H](O)[C@@H](C)OC(=O)[C@H](CCC(C)C)[C@@H](O)C[C@@H](O)C[C@@H](O)C[C@@H](O)C[C@@H](O)C[C@@H](O)C[C@@H]1O
6,12.5,CCCCC[C@@H](O)[C@H]1C(=O)O[C@H](C)[C@@H](O)/C=C/C=C/C=C/C=C/C=C(\C)[C@@H](O)C[C@H](O)C[C@H](O)C[C@H](O)C[C@H](O)C[C@H](O)C[C@@H]1O [FILIPIN]
7,> 12.5,C[C@@H]1C/C=C/C=C/C=C/C=C/C=C/[C@@H](O)C[C@H](O)C[C@H](O)C[C@H](O)C[C@H](O)C[C@H](O)C[C@H](O)CC(=O)O1
8,1.56,CCCCCC[C@H]1C(=O)O[C@H](C)[C@@H](O)/C=C/C=C/C=C/C=C/C=C(\C)[C@@H](O)C[C@H](O)C[C@H](O)C[C@H](O)C[C@H](O)C[C@H](O)C[C@@H]1O
